Measurements from patent US20050209299A1, “Inhibition of mixed lineage kinases and uses therefor” (University of Maryland, Baltimore, priority 2004, published 2005).

What was measured:
HeLa cells [1] = assay: Cell proliferation assay (cell counting, trypan blue); type: cell-based; settings: CEP-11004 500 nM, up to 72 hours, cell number
Description: (§1) Following treatments cells were counted on a hemocytometer following trypsinization and staining with trypan blue (Sigma). Greater than 95% of the cells excluded trypan blue dye. Cell proliferation also was measured using a colony formation assay. […] Following incubation for 8-14 days, cells were fixed for 10 minutes in 4% paraformaldehyde and stained with 0.2% crystal violet (in 20% methanol) for 1-2 minutes. Cells were washed several times with distilled water and colonies formed (at least 40 cells/per colony) were counted.

NIH 3T3 cells = assay: as above; type: cell-based; settings: CEP-11004 500 nM, up to 72 hours, cell number
Description: as §1

[2] = tested on: A549 airway epithelia carcinoma cell; assay: Colony formation assay; type: cell-based; settings: varying doses, 14 days, crystal violet
Description: as §1

HeLa cells [3] = assay: FACS analysis of DNA content (cell cycle); type: cell-based
Description: (§2) In some experiments, cells were synchronized by double thymidine block as previously described (18-19). Briefly, cells were incubated for 16 hours with 2 mM thymidine in 10% FBS containing DMEM. The excess thymidine was washed off with Hanks Buffered Saline Solution (HBSS) and cells were released back into the cell cycle with complete medium. After 8 hours, cells were treated a second time with 2 mM thymidine in 10% FBS containing DMEM for another 16 hours to arrest cells at the G1/S-phase boundary. Synchronized cells were then washed with HBSS and released back into the cell cycle and harvested at various time points after G1/S release for analysis. Cell cycle analysis was done by fluorescence activated cell sorting (FACS) as described below.
Synchronized cells were trypsinized, washed with PBS, fixed with 3 ml of cold (−20° C.) 70% ethanol, and stored at 4° C. overnight. Cells then were incubated with 100 μg/ml propidium iodide (Sigma) dissolved in 0.2 M Tris, pH 7.5, 20 mM EDTA, 1 mg/ml RNase A (Sigma) for 1 hour at room temperature and diluted with an equal volume of PBS. DNA content was measured by flow cytometry (FACScan Analyzer, BD Biosciences) and was analyzed using the Sync Wizard Model, ModFit LT software (BD Biosciences). […]

HEK293 cells = assay: FACS analysis of DNA content (cell cycle); type: cell-based; settings: treated for 20 hours; indicative of arrest in G2 or M-phase
Description: Synchronized cells were trypsinized, washed with PBS, fixed with 3 ml of cold (−20° C.) 70% ethanol, and stored at 4° C. overnight. Cells then were incubated with 100 μg/ml propidium iodide (Sigma) dissolved in 0.2 M Tris, pH 7.5, 20 mM EDTA, 1 mg/ml RNase A (Sigma) for 1 hour at room temperature and diluted with an equal volume of PBS. DNA content was measured by flow cytometry (FACScan Analyzer, BD Biosciences) and was analyzed using the Sync Wizard Model, ModFit LT software (BD Biosciences). To determine the percentage of G1, S and G2/M-phase cells, the settings for 2N and 4N peaks were defined within each experiment from the G1/S arrested cells and applied to all samples within a given experiment.

cyclin B1 = assay: Cyclin B1 immunoblot in synchronized HeLa cells; type: cell-based
Description: as §2
For protein analysis, cells were washed twice with cold phosphate buffered saline (PBS), lysed with 300 μl of tissue lysis buffer (TLB) (20 mM Tris-base, pH 7.4, 137 mM NaCl, 2 mM EDTA, 1% Triton X-100, 25 mM β-glycerophosphate, 2 mM sodium pyrophosphate, 10% glycerol, 1 mM sodium orthovanadate, 1 mM phenylmethysulfonyl fluoride (PMSF), and 1 mM benzamidine) and centrifuged at 20,000×g to clarify lysates. Approximately 20 μg of total protein was separated by SDS-PAGE. Proteins were transferred to PVDF membrane (Perkin Elmer Life Sciences; Boston, Mass.), blocked for 1-2 hours with 5% nonfat dry milk in Tris-buffered saline (TBS) (50 mM Tris-base, pH 7.4, 0.15 M NaCl, and 0.1% Tween-20) and incubated with the primary antibodies in TBS containing 1% BSA solution for 1 to 16 hours. Membranes were washed several times in TBS-Tween solution and incubated with HRP conjugated anti-mouse or anti-rabbit antibodies (0.1 μg/ml). Immunoreactivity was detected by enhanced chemiluminescence (ECL; Amersham, Buckinghamshire, England).

Cdc2 = Cdc2 kinase activity (immunoprecipitated, histone substrate) in synchronized HeLa cells; type: cell-based
Description: as §2
Cdc2 was immunoprecipitated from cell lysates by incubating with Cdc2 antibody (0.5 μg) for 2 hours on ice. The lysates then were incubated with protein G-sepharose with mixing at 4° C. for an additional 2 hours. The immune-complex was washed with cold kinase buffer and incubated for 30 min at 30° C. with kinase buffer containing 10 μCi γ-^32P ATP, 20 μM cold ATP, and 2.5 μg histone (Type III-SS, Sigma) as a substrate. The reactions were stopped with SDS-PAGE sample buffer and the proteins were resolved by SDS-PAGE. Incorporation of ^32P into histone was determined by phosphorimager analysis.

MLK3 [4] = biological target: T1, MLK3 (Homo sapiens, UniProt Q16584); assay: MLK3 kinase assay (immunoprecipitated from treated transfected cells, MBP substrate); type: cell-based
T1 construct: expressed in transfected cells; host or cells: HeLa
Description: Immunoprecipitated MLK3 was incubated for 45 min at 30° C. with kinase buffer containing 10 μCi γ-^32P ATP, 20 μM cold ATP, and 0.5 μg myelin basic protein (MBP) as a substrate. The reaction was quenched with 2×SDS sample buffer, separated by SDS-PAGE and transferred to PVDF membranes (Perkin Elmer, Boston, Mass.). Radioactive phosphate incorporation into MBP and MLK3 were analyzed by phosphorimager (Amersham Biosciences/Molecular Dynamics) and immunoblotting, respectively.

MLK3 [5] = biological target: T1, MLK3; assay: MLK3 induced JNK phosphorylation in transfected cells (immunoblot); type: cell-based
Description: (§3) HeLa, NIH 3T3, HEK293, A549, or MRC-5 cells were grown in a DMEM supplemented with 10% fetal bovine serum (FBS) and penicillin (100 U/ml) and streptomycin (100 μg/ml). Estrogen receptor (ER) negative breast cancer cells, SUM-159, were obtained from the University of Michigan Human Breast Cancer Cell Lines (SUM-Lines) and grown in DMEM+10% FBS. In some experiments, cells were transfected with cDNA (1 μg) for pEGFP (BD Biosciences/Clontech, Palo Alto, Calif.), hemagglutinin (HA)-tagged MLK3, kinase dead mutant MLK3 (MLK3 K144R), GFP-tagged MLK2 (kindly provided by Dr. Donna Dorow), Flag-tagged DLK, or HA-tagged JNK1 using Lipofectamine® (Invitrogen, Carlsbad, Calif.). Transfected cells were harvested 16-24 hours after transfection.
(§4) For protein analysis, cells were washed twice with cold phosphate buffered saline (PBS), lysed with 300 μl of tissue lysis buffer (TLB) (20 mM Tris-base, pH 7.4, 137 mM NaCl, 2 mM EDTA, 1% Triton X-100, 25 mM β-glycerophosphate, 2 mM sodium pyrophosphate, 10% glycerol, 1 mM sodium orthovanadate, 1 mM phenylmethysulfonyl fluoride (PMSF), and 1 mM benzamidine) and centrifuged at 20,000×g to clarify lysates. Approximately 20 μg of total protein was separated by SDS-PAGE. […] Immunoreactivity was detected by enhanced chemiluminescence (ECL; Amersham, Buckinghamshire, England).

MLK3 [6] = biological target: T1, MLK3; assay: MLK3-induced ERK activation in transfected HeLa cells (ppERK immunoblot); type: cell-based; settings: CEP-11004 500 nM
Description: as §3, §4

MKK1 = assay: Constitutively active MKK1 induced ERK activation in transfected HeLa cells (ppERK immunoblot); type: cell-based; settings: CEP-11004 500 nM
Description: as §3, §4

HeLa cells [7] = assay: Mitotic index / mitotic stage assay (DAPI) in synchronized HeLa cells; type: cell-based
Description: as §2
Cells grown on coverslips were synchronized at the G1/S-phase boundary as described in Examples 4-5. In some cases, MLK3 was co-expressed with the pEGFP vector in order to identify transfected cells. […] At varying times after release, coverslips were fixed and cellular DNA was stained with DAPI. GFP-positive mitotic cells in prophase, prometaphase, metaphase, anaphase, or telophase were identified, counted, and expressed as a fraction of the total cells counted to determine the mitotic index. Within each experiment, 300 to 350 cells were counted for each condition and time point.

histone H3 = assay: Phospho-histone H3 (serine 10) immunofluorescence in synchronized HeLa cells; type: cell-based
Description: as §2
(§5) Cells grown on round glass coverslips in 6-centimeter plates were synchronized at the G1/S-phase boundary using excess thymidine as described in Example 4. At the indicated time after release back into the cell cycle, coverslips were fixed with 4% paraformaldehyde for 8 minutes and permeabilized with 0.1% Triton X-100 in PBS for 2 minutes. Cell staining patterns were confirmed in cells that were fixed and permeabilized with cold methanol for 10 minutes. Cells were stained with antibodies against MLK3, α-tubulin, cyclin B1, phospho-specific histone H3, or p62 nucleoporin followed by incubation with fluorescein or Texas Red conjugated secondary antibodies and counterstaining for cellular DNA with 4′,6-diamidino-2-phenylindole (DAPI, 0.2 μg/ml in PBS). Cells were identified using Nikon E800 Epi-fluorescence microscope (Image Systems, Columbia, Md.) and captured with a Hamamatsu CCD camera. Cell images were processed using IPlab software (Scanalytics, Fairfax, Va.).

HeLa cells [8] = assay: Mitotic spindle immunostaining (α/γ-tubulin, DAPI) in synchronized HeLa cells; type: cell-based
Description: as §2, §5

MLK3 [9] = biological target: T1, MLK3; settings: reference 11; cited from earlier work
ERK pathway = settings: neuronal cells, reported (12); cited from earlier work
[10] = 11 and 13 hours after G1/S-phase release, vs untreated
[11] = 400 nM, added 5 hours after release
[12] = treated at end of S-phase for 4 hours

T1 sequence (Q16584 whole entry): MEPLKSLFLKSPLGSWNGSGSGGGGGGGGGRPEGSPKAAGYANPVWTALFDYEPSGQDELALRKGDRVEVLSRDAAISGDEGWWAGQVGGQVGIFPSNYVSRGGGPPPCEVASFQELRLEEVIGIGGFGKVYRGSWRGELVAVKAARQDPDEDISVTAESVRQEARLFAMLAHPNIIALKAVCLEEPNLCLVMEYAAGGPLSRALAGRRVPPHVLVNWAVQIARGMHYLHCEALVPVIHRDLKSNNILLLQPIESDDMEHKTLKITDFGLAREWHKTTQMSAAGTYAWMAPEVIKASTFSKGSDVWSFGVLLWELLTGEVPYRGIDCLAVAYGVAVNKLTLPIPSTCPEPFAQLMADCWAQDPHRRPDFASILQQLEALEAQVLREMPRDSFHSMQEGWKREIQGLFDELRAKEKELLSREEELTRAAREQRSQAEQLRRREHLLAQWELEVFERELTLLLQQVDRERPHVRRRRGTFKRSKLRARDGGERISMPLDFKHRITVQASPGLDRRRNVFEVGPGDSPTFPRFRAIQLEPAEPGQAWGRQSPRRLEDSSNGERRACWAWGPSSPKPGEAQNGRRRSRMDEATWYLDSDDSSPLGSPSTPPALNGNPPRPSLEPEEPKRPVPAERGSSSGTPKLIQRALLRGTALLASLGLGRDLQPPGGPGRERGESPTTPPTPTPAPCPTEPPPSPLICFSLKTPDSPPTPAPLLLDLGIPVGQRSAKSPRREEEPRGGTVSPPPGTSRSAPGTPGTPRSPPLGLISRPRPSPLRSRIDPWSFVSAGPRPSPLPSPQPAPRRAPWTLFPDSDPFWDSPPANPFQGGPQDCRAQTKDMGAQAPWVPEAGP

## 3,9-bis-[(isopropylthio)methyl]-(8R*,9S*, 11S*)-(−)-9-hydroxy-9-methoxycarbonyl-8-methyl-2,3,9,10-tetrahydro-8,11-epoxy-1H,8H,11H-2,7b,11a-triazadibenzo(a,g)cycloocta(cde)trinden-1-one [CEP-11004]
HeLa cells [1]
  HeLa cell proliferation: inhibited
NIH 3T3 cells
  proliferation of NIH 3T3 cells: unaffected
[2]
  A549 colony formation: dose dependent inhibition
HeLa cells [3]; added 5 hours after G1/S release, 11 and 13 hours after release
  cell cycle progression in synchronized HeLa cells (4N DNA): arrest in G2 or M-phase
HeLa cells [3]; treated for 20 hours, indicative of arrest in G2 or M-phase
  DNA content by FACS, HeLa cells: accumulated 4N DNA
HEK293 cells
  DNA content by FACS, HEK293 cells: accumulated 4N DNA
Cyclin B1; [10]
  cyclin B1 expression in synchronized HeLa cells: sustained cyclin B1 expression
Cyclin B1; 100 or 200 nM CEP-11004, 8 hours
  cyclin B1 levels in mock transfected cells: elevated
Cyclin B1; 100 or 200 nM, vs mock transfected
  cyclin B1 levels in MLK3 transfected cells: lower cyclin B1 levels
Cdc2; [10]
  Cdc2 kinase activity in synchronized HeLa cells: elevated Cdc2 kinase activity
Cdc2; 100 or 200 nM CEP-11004
  Cdc2 activity in mock transfected vs MLK3 transfected cells: higher Cdc2 activity
MLK3 [4]; HA-MLK3 in HeLa cells, CEP-11004 500 nM, 4 hours
  expressed MLK3 activity (MBP phosphorylation): significantly inhibited
MLK3 [4]; data not shown
  MLK3 activity during G2 and M-phase transitions: blocked
MLK3 [5]; 100 nM CEP-11004, HA-MLK3 + HA-JNK1 co-expressed
  inhibition of MLK3 induced JNK1 phosphorylation: 80%
MLK3 [5]; CEP-11004 500 nM, 4 hours, transfected cells
  MLK3 induced JNK phosphorylation: inhibited MLK3
MLK3 [6]
  MLK3-induced ERK activation: inhibited
MKK1
  activity of MKK1 (non-MLK related protein kinase): does not affect
HeLa cells [7]; [11]
  cells in metaphase or anaphase/telophase at 9 hours after G1/S: not evident
  mitotic stage at 11 hours after G1/S release: primarily accumulated in pro-metaphase
HeLa cells [7]; 400 nM, added 5 hours after release, vs untreated
  pro-metaphase cells at 9 hours after G1/S: accumulation of pro-metaphase cells
HeLa cells [7]; as low as, FIGS. 6A-6C
  concentrations at which mitotic arrest occurs: 100 to 200 nM
HeLa cells [7]; various concentrations for 8 hours (13 hours after G1/S release)
  percentage of pro-metaphase cells vs concentration: dose-dependent increase
Histone H3; added 5 hours after G1/S release, additional 4 hours
  nuclear pH3 staining during prophase: did not contain nuclear pH3 staining
Histone H3; both untreated and treated cells
  pH3 staining after NEB in pro-metaphase: readily apparent
Histone H3; data not shown
  lowest dose with inhibited pH3 staining in early mitotic cells: 200 nM
Histone H3; p62 nucleoporin co-staining
  pH3 staining in early mitosis before NEB: not observed
HeLa cells [8]; [12]
  chromosome organization (DAPI): highly disorganized
  microtubule organization (α-tubulin) in mitotic cells: significant disruption
  mitotic cells with aberrant microtubule organization: Greater than 60%
  number of spindle poles (γ-tubulin): no effect
HeLa cells [8]; treated for 4 hours, data not shown
  microtubules of interphase cells: no apparent effects
MLK3 [9]
  specificity towards MLK3 as compared to MLK2: approximately 3 fold

## CCSCc1ccc2c(c1)c1c3c(c4c5cc(CSCC)ccc5n5c4c1n2[C@H]1C[C@](O)(C(=O)OC)[C@]5(C)O1)CNC3=O (relative stereo) [CEP-1347, 3,9-bis[(ethylthio)methyl]-(8R*,9S*,11-S*)-(−)-9-hydroxy-9-methoxycarbonyl-8-methyl 2,3,9,10-tetrahydro-8,11-epoxy-1H,8H, 11H-2,7b,11a-triazadibenzo(a,g)cycloocta(cde)trinden-1-one]
ERK pathway
  effect on the ERK pathway: activate the ERK pathway
